This note sets out measurements from patent publication US7470684B2, “Spiropiperidine derivatives as NK3 antagonists” (Hoffmann-La Roche Inc., priority 2007, dated 2008).

Where a name gives a salt, the structure may show the parent alone.

In the first assay the target is T1, human NK3 receptor (Homo sapiens, UniProt P29371).
T1 construct: expressed in transfected cells; host or cells: HEK293 cells, transiently transfected; membranes
T1 sequence (P29371 1-465): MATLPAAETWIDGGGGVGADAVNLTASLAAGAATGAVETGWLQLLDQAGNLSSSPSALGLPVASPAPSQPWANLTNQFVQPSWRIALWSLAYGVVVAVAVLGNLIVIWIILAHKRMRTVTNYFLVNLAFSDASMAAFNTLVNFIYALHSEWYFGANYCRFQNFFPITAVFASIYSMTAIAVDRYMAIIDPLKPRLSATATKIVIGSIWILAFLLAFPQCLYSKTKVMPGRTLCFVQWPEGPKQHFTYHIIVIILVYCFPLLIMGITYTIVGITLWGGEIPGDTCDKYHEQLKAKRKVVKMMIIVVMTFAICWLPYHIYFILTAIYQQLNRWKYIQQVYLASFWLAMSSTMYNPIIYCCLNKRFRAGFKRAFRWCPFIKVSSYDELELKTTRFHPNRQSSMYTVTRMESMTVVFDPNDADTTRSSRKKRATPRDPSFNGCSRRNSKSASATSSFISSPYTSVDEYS
As to the kind of experiment: [3H]SR142801 competition binding assay.
Conditions: not given
As for the experimental part: [^3H]SR142801 Competition Binding Assay
hNK3 receptor binding experiment were performed using [^3H]SR142801 (Catalog No. TRK1035, specific activity: 74.0 Ci/mmol, Amersham, GE Healthcare UK limited, Buckinghamshire, UK) and membrane isolated from HEK293 cells transiently expressing recombinant human NK3 receptor. After thawing, the membrane homogenates were centrifuged at 48,000×g for 10 min at 4° C., the pellets were resuspended in the 50 mM Tris-HCl, 4 mM MnCl2, 1 μM phosphoramidon, 0.1% BSA binding buffer at pH 7.4 to a final assay concentration of 5 μg protein/well. For inhibition experiments, membranes were incubated with [^3H]SR142801 at a concentration equal to KD value of radioligand and 10 concentrations of the inhibitory compound (0.0003-10 μM) (in a total reaction volume of 500 μl) for 75 min at room temperature (RT). At the end of the incubation, membranes were filtered onto unitfilter (96-well white microplate with bonded GF/C filter preincubated 1 h in 0.3% PEI+0.3% BSA, Packard BioScience, Meriden, Conn.) with a Filtermate 196 harvester (Packard BioScience) and washed 4 times with ice-cold 50 mM Tris-HCl, pH 7.4 buffer. Nonspecific binding was measured in the presence of 10 μM SB222200 for both radioligands. The radioactivity on the filter was counted (5 min) on a Packard Top-count microplate scintillation counter with quenching correction after addition of 45 μl of microscint 40 (Canberra Packard S.A., Zürich, Switzerland) and shaking for 1 h. Inhibition curves were fitted according to the Hill equation: y=100/(1+(x/IC50)^nH), where nH=slope factor using Excel-fit 4 software (Microsoft). IC50 values were derived from the inhibition curve and the affinity constant (Ki) values were calculated using the Cheng-Prussoff equation Ki=IC50/(1+[L]/KD) where [L] is the concentration of radioligand and KD is its dissociation constant at the receptor, derived from the saturation isotherm. All experiments were performed in duplicate and the mean±standard error (SEM) of the individual Ki values was calculated.
`CCCCN(C)C(=O)C(CCN1CCC2(CC1)OC(=O)Nc1ccc(F)cc12)c1ccc(Cl)c(Cl)c1` (stereo not shown) [Example 14, N-butyl-2-(3,4-dichlorophenyl)-4-(6-fluoro-2-oxo-1,2-dihydro-1′H-spiro[3,1-benzoxazine-4,4′-piperidin]-1′-yl)-N-methylbutanamide]: the inhibition constant Ki was 90.8 nM.

Turning to `CN1C(=O)OC2(CCN(CCC(C(=O)N3CCc4ccc(F)cc4C3)c3ccc(Cl)c(Cl)c3)CC2)c2cc(F)ccc21` (stereo not shown) [Example 38, 1′-[3-(3,4-dichlorophenyl)-4-(7-fluoro-3,4-dihydroisoquinolin-2(1H)-yl)-4-oxobutyl]-6-fluoro-1-methylspiro[3,1-benzoxazine-4,4′-piperidin]-2(1H)-one], the Ki was determined as 48.7 nM.

Still in this assay, the particulars now being: [3H]SR142801 displacement, membranes of HEK293 cells transiently expressing recombinant human NK3 receptor; read-out: hNK3 Ki.
On to `Cc1ccc(CNC(=O)C(CCN2CCC3(CC2)OC(=O)Nc2ccc(F)cc23)c2ccc(Cl)c(Cl)c2)o1` (stereo not shown) [Example 9, 2-(3,4-dichlorophenyl)-4-(6-fluoro-2-oxo-1,2-dihydro-1′H-spiro[3,1-benzoxazine-4,4′-piperidin]-1′-yl)-N-[(5-methyl-2-furyl)methyl]butanamide], for which the inhibition constant (Ki) came out at 91.4 nM.

The assay is the same for the next values; noted with them: hNK3 Ki, [3H]SR142801 displacement, membranes of HEK293 cells transiently expressing recombinant human NK3 receptor.
Take `CN(Cc1ccccc1)C(=O)C(CCN1CCC2(CC1)OC(=O)Nc1ccc(F)cc12)c1ccc(Cl)c(Cl)c1` (stereo not shown) [Example 1, N-benzyl-2-(3,4-dichlorophenyl)-4-(6-fluoro-2-oxo-1,2-dihydro-1′H-spiro[3,1-benzoxazine-4,4′-piperidin]-1′-yl)-N-methylbutanamide hydrochloride]: the Ki stood at 11.2 nM. Still for that read-out and setting: next, `CCN(Cc1ccccc1)C(=O)C(CCN1CCC2(CC1)OC(=O)Nc1ccc(F)cc12)c1ccc(Cl)c(Cl)c1` (stereo not shown) [Example 6, N-benzyl-2-(3,4-dichlorophenyl)-N-ethyl-4-(6-fluoro-2-oxo-1,2-dihydro-1′H-spiro[3,1-benzoxazine-4,4′-piperidin]-1′-yl)butanamide]: 62.8 nM; `O=C1Nc2ccc(F)cc2C2(CCN(CCC(C(=O)NCc3ccc(Cl)cc3)c3ccc(Cl)c(Cl)c3)CC2)O1` (stereo not shown) [Example 8, N-(4-chlorobenzyl)-2-(3,4-dichlorophenyl)-4-(6-fluoro-2-oxo-1,2-dihydro-1′H-spiro[3,1-benzoxazine-4,4′-piperidin]-1′-yl)butanamide]: 17 nM. Still for that read-out and setting: the value for `CCN(Cc1ccccc1F)C(=O)C(CCN1CCC2(CC1)OC(=O)Nc1ccc(F)cc12)c1ccc(Cl)c(Cl)c1` (stereo not shown) [Example 12, 2-(3,4-dichlorophenyl)-N-ethyl-N-(2-fluorobenzyl)-4-(6-fluoro-2-oxo-1,2-dihydro-1′H-spiro[3,1-benzoxazine-4,4′-piperidin]-1′-yl)butanamide] was 31.2 nM. For `CN(Cc1ccc(Cl)cc1)C(=O)C(CCN1CCC2(CC1)OC(=O)Nc1ccc(F)cc12)c1ccc(Cl)c(Cl)c1` (stereo not shown) [Example 15, N-(4-chlorobenzyl)-2-(3,4-dichlorophenyl)-4-(6-fluoro-2-oxo-1,2-dihydro-1′H-spiro[3,1-benzoxazine-4,4′-piperidin]-1′-yl)-N-methylbutanamide], the inhibitory constant (Ki) worked out at 3.7 nM. For the compound `CN(Cc1ccccc1Cl)C(=O)C(CCN1CCC2(CC1)OC(=O)Nc1ccc(F)cc12)c1ccc(Cl)c(Cl)c1` (stereo not shown) [Example 17, N-(2-chlorobenzyl)-2-(3,4-dichlorophenyl)-4-(6-fluoro-2-oxo-1,2-dihydro-1′H-spiro[3,1-benzoxazine-4,4′-piperidin]-1′-yl)-N-methylbutanamide], the inhibitory constant (Ki) came to 6.7 nM.

As for `CCN(Cc1ccc(C)cc1)C(=O)C(CCN1CCC2(CC1)OC(=O)Nc1ccc(F)cc12)c1ccc(Cl)c(Cl)c1` (stereo not shown) [Example 18, 2-(3,4-dichlorophenyl)-N-ethyl-4-(6-fluoro-2-oxo-1,2-dihydro-1′H-spiro[3,1-benzoxazine-4,4′-piperidin]-1′-yl)-N-(4-methylbenzyl)butnamide], the inhibition constant (Ki) came to 15.7 nM. In the case of `CN(Cc1cccc(Cl)c1)C(=O)C(CCN1CCC2(CC1)OC(=O)Nc1ccc(F)cc12)c1ccc(Cl)c(Cl)c1` (stereo not shown) [Example 19, N-(3-chlorobenzyl)-2-(3,4-dichlorophenyl)-4-(6-fluoro-2-oxo-1,2-dihydro-1′H-spiro[3,1-benzoxazine-4,4′-piperidin]-1′-yl)-N-methylbutanamide], the Ki was determined as 5.2 nM. On the same count and under the same terms, next, `CN(Cc1cccc(Cl)c1)C(=O)C(CCN1CCC2(CC1)OC(=O)Nc1ccc(F)cc12)c1ccc(F)cc1` (stereo not shown) [Example 25, N-(3-chlorobenzyl)-4-(6-fluoro-2-oxo-1,2-dihydro-1′H-spiro[3,1-benzoxazine-4,4′-piperidin]-1′-yl)-2-(4-fluorophenyl)-N-methylbutanamide]: 59.4 nM. The same measure, in the same setting: next, `CN(Cc1ccc(Cl)cc1)C(=O)C(CCN1CCC2(CC1)OC(=O)Nc1ccc(F)cc12)c1ccc(F)cc1` (stereo not shown) [Example 26, N-(4-chlorobenzyl)-4-(6-fluoro-2-oxo-1,2-dihydro-1′H-spiro[3,1-benzoxazine-4,4′-piperidin]-1′-yl)-2-(4-fluorophenyl)-N-methylbutanamide]: 38.3 nM; `CN(Cc1ccccc1Cl)C(=O)C(CCN1CCC2(CC1)OC(=O)Nc1ccc(F)cc12)c1ccc(F)cc1` (stereo not shown) [Example 27, N-(2-chlorobenzyl)-4-(6-fluoro-2-oxo-1,2-dihydro-1′H-spiro[3,1-benzoxazine-4,4′-piperidin]-1′-yl)-2-(4-fluorophenyl)-N-methylbutanamide]: 38.5 nM; `CCN(Cc1ccccc1)C(=O)C(CCN1CCC2(CC1)OC(=O)N(C)c1ccc(F)cc12)c1ccc(Cl)c(Cl)c1` (stereo not shown) [Example 29, N-benzyl-2-(3,4-dichlorophenyl)-N-ethyl-4-(6-fluoro-1-methyl-2-oxo-1,2-dihydro-1′H-spiro[3,1-benzoxazine-4,4′-piperidin]-1′-yl)-butanamide]: 6.7 nM. On the same count and under the same terms, next, `Cc1ccc(CNC(=O)C(CCN2CCC3(CC2)OC(=O)N(C)c2ccc(F)cc23)c2ccc(Cl)c(Cl)c2)cc1` (stereo not shown) [Example 31, 2-(3,4-dichlorophenyl)-4-(6-fluoro-1-methyl-2-oxo-1,2-dihydro-1′H-spiro[3,1-benzoxazine-4,4′-piperidin]-1′-yl)-N-(4-methylbenzyl)butanamide]: 5.8 nM; `CN1C(=O)OC2(CCN(CCC(C(=O)NCc3ccccc3)c3ccc(Cl)c(Cl)c3)CC2)c2cc(F)ccc21` (stereo not shown) [Example 32, N-benzyl-2-(3,4-dichlorophenyl)-4-(6-fluoro-1-methyl-2-oxo-1,2-dihydro-1′H-spiro[3,1-benzoxazine-4,4′-piperidin]-1′-yl)-butanamide]: 3.9 nM.

Consider `CN1C(=O)OC2(CCN(CCC(C(=O)NCc3ccc(S(C)(=O)=O)cc3)c3ccc(Cl)c(Cl)c3)CC2)c2cc(F)ccc21` (stereo not shown) [Example 33, 2-(3,4-dichlorophenyl)-4-(6-fluoro-1-methyl-2-oxo-1,2-dihydro-1′H-spiro[3,1-benzoxazine-4,4′-piperidin]-1′-yl)-N-[4-(methylsulfonyl)benzyl]butanamide], for which the Ki stood at 54.7 nM.

In the case of `CN1C(=O)OC2(CCN(CCC(C(=O)NCc3ccc(Cl)cc3)c3ccc(Cl)c(Cl)c3)CC2)c2cc(F)ccc21` (stereo not shown) [Example 34, N-(4-chlorobenzyl)-2-(3,4-dichlorophenyl)-4-(6-fluoro-1-methyl-2-oxo-1,2-dihydro-1′H-spiro[3,1-benzoxazine-4,4′piperidin]-1′-yl)-butanamide], the Ki was determined as 3.3 nM.

By Ki is commonly meant the dissociation constant of the complex between target and ligand, obtained from inhibition or displacement.
